6 compounds from ChEMBL document CHEMBL5120813, “Polysubstituted Cyclopentene Benzamides and Dianthramide Alkaloids from Delphinium anthriscifolium Hance” (2022) can be followed below.

The test system of this test is RAW264.7. Kind of test: Antiinflammatory activity in mouse RAW264.7 assessed as inhibition of LPS-induced NO production preincubated for 30 mins followed by LPS stimulation measured after 24 hrs by Griess reagent based assay relative to control. Further details: concentration or dose not given beside the values. To be noted: 0.5 h. It counts as functional. On the technique in general: Griess reagent forms a coloured azo dye with nitrite.
As to `COC(=O)c1cc(O)c(O)cc1NC(=O)c1cc(O)ccc1O`, the “inhibition (INH)” value was 40.3%.
For the compound `COC(=O)c1c(NC(=O)c2cccc(O)c2OC)ccc(O)c1OC`, the “inhibition (INH)” value amounted to 43%.
Turning to `COC(=O)c1cc(O)c(O)cc1NC(=O)c1cc(O)ccc1OC`, the “inhibition (INH)” value was 78.8%.
For `COC(=O)c1cc(O)ccc1NC(=O)c1cccc(O)c1OC` the value was 61.2%; for `COC(=O)c1cc(O)c(O)cc1NC(=O)c1ccccc1O`, 57.6%.
In the case of `O=c1c(O)c(-c2ccc(O)c(O)c2)oc2cc(O)cc(O)c12` [QUERCETIN], the “inhibition (INH)” value turned out to be 48.6%.
